Measured values taken from patent US11208412B2 (DAEGU-GYEONGBUK MEDICAL INNOVATION FOUNDATION, priority 2017, dated 2021).

Tests used:
Experiment in all cases: Kinase selectivity, DiscoverX scanMAX Kinase assay panel (% control)
Format in all cases: binding
[1] = target: T1, kinases of the scanMAX Kinase assay panel (Homo sapiens, UniProt O75747); settings: PIK3C2G; 1 uM
T1 construct: purchased DiscoverX Co. (contract measurement) scanMAX Kinase assay panel
T1 sequence (O75747 1-1486): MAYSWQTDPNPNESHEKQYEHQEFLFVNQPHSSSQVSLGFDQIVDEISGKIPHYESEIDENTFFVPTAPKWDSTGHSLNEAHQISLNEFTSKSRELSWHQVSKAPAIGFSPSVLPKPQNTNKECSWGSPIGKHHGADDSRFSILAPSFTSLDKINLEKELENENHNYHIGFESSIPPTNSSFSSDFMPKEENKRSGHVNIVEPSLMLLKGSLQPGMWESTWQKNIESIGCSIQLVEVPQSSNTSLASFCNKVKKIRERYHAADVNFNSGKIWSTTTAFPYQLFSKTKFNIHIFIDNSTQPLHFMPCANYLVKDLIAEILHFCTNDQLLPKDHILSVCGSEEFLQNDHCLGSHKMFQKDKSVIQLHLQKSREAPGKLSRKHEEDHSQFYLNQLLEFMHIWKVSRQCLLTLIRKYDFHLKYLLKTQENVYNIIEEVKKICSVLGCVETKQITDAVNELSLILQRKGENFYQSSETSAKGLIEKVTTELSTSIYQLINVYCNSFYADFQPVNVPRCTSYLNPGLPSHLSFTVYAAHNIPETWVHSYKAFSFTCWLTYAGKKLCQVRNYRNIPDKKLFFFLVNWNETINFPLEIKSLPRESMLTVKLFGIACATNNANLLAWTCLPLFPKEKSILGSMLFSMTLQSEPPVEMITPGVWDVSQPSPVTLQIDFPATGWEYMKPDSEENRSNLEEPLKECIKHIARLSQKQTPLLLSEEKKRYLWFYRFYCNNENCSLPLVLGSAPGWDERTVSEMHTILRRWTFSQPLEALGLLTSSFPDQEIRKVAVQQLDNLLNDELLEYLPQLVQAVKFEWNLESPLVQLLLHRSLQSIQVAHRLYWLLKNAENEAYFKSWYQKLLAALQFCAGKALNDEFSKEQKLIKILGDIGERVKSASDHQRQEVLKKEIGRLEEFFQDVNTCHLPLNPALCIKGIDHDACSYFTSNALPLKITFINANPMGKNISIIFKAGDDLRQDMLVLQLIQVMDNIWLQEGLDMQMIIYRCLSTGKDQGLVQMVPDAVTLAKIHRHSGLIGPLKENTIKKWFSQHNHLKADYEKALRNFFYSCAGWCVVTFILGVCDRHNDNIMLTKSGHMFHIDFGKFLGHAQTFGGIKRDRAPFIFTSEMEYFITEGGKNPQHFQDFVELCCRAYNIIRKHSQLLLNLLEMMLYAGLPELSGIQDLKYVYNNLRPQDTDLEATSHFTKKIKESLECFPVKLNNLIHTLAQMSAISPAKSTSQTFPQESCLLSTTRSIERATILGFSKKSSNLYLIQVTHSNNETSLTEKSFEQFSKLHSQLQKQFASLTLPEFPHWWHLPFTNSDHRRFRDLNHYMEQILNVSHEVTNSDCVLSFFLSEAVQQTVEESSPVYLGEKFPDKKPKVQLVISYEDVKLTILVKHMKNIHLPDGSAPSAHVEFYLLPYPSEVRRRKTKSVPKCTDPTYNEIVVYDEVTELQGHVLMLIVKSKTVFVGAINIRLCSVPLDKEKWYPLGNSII
Protocol: (§1) The following experiment was performed to evaluate the activity of the compounds of the present invention to inhibit many enzymes.
(§2) Particularly, the compounds of Examples 8, 64 and 104 were selected among all of those compounds of the invention. DiscoverX Co. was asked to measure the enzyme (kinase) selectivity, and the experiment was performed using scanMAX™ Kinase assay panel.
(§3) Wherein, the concentration of the drug treated to each enzyme was 1 uM in DMSO and the control percentage (% control) was determined by the following Equation 1. (example compound−positive control)/(negative control−positive control)×100 [Equation 1]
(§4) Herein, the positive control indicates the compound showing the % control of 0%, and the negative control indicates DMSO showing the % control of 100%. The enzyme selectivity in the present invention is defined as follows: When the % control for each enzyme is less than 35% (<35%), it is judged that the compound has the activity to the corresponding enzyme.

[2] = target: T2, kinases of the scanMAX Kinase assay panel (Homo sapiens, UniProt P54646); settings: AMPK-alpha2; 1 uM
T2 construct: purchased DiscoverX Co. (contract measurement) scanMAX Kinase assay panel
T2 sequence (P54646 whole entry): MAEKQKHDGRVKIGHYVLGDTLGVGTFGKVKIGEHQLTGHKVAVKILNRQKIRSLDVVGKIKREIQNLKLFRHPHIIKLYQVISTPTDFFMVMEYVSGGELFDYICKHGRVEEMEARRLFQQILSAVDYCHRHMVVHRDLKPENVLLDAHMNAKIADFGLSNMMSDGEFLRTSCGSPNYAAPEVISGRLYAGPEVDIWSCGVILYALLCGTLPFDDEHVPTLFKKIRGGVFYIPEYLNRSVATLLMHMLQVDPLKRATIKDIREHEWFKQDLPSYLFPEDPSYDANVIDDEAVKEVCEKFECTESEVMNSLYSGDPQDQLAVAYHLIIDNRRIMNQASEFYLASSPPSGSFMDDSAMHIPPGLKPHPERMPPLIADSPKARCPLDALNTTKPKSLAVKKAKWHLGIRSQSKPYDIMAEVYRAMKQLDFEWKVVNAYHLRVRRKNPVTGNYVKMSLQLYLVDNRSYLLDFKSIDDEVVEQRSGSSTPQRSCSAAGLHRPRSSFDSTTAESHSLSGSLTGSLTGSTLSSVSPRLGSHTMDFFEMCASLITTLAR
Protocol: as §1, §2, §3, §4

[3] = target: T3, kinases of the scanMAX Kinase assay panel (Homo sapiens, UniProt Q00535); settings: CDK5; 1 uM
T3 construct: purchased DiscoverX Co. (contract measurement) scanMAX Kinase assay panel
T3 sequence (Q00535 whole entry): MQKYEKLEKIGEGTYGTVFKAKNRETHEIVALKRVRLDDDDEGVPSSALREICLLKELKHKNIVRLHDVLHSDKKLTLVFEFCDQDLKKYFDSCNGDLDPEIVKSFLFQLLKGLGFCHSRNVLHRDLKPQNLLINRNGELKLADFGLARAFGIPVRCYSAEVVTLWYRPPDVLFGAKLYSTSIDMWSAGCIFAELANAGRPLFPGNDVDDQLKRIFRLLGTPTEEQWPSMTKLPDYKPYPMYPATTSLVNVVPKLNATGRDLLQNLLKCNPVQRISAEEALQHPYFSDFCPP
Protocol: as §1, §2, §3, §4

[4] = target: T4, kinases of the scanMAX Kinase assay panel (Homo sapiens, UniProt Q05397); settings: FAK; 1 uM
T4 construct: purchased DiscoverX Co. (contract measurement) scanMAX Kinase assay panel
T4 sequence (Q05397 whole entry): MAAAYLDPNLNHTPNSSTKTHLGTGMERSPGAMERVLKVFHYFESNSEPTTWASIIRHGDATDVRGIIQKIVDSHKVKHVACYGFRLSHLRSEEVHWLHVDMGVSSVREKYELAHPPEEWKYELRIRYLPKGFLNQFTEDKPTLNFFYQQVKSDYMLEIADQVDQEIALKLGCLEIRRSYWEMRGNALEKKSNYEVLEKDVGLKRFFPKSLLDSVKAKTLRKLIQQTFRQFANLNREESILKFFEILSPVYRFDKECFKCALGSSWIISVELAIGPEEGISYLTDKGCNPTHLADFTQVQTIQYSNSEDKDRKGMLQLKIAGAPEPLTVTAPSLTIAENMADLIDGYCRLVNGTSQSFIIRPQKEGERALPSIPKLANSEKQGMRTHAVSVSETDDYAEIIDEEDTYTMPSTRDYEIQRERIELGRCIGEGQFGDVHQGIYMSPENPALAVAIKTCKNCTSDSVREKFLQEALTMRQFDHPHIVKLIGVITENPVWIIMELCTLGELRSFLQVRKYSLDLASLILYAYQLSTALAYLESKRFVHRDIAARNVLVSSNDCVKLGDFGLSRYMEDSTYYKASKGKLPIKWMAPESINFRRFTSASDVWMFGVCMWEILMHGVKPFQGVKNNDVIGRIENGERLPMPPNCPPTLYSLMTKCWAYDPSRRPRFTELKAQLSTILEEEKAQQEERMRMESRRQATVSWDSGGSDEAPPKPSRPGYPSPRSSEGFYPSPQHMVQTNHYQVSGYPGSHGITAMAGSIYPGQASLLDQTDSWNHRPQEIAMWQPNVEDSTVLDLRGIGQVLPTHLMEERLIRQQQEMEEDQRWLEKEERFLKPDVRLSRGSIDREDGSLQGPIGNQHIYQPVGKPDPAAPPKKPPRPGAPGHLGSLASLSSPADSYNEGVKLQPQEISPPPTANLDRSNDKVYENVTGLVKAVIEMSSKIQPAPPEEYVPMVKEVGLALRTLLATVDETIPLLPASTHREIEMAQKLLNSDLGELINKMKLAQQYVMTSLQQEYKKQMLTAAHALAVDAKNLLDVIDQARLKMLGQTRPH
Protocol: as §1, §2, §3, §4

[5] = target: T5, kinases of the scanMAX Kinase assay panel (Homo sapiens, UniProt Q9UF33); settings: EPHA6; 1 uM
T5 construct: purchased DiscoverX Co. (contract measurement) scanMAX Kinase assay panel
T5 sequence (Q9UF33 23-1036): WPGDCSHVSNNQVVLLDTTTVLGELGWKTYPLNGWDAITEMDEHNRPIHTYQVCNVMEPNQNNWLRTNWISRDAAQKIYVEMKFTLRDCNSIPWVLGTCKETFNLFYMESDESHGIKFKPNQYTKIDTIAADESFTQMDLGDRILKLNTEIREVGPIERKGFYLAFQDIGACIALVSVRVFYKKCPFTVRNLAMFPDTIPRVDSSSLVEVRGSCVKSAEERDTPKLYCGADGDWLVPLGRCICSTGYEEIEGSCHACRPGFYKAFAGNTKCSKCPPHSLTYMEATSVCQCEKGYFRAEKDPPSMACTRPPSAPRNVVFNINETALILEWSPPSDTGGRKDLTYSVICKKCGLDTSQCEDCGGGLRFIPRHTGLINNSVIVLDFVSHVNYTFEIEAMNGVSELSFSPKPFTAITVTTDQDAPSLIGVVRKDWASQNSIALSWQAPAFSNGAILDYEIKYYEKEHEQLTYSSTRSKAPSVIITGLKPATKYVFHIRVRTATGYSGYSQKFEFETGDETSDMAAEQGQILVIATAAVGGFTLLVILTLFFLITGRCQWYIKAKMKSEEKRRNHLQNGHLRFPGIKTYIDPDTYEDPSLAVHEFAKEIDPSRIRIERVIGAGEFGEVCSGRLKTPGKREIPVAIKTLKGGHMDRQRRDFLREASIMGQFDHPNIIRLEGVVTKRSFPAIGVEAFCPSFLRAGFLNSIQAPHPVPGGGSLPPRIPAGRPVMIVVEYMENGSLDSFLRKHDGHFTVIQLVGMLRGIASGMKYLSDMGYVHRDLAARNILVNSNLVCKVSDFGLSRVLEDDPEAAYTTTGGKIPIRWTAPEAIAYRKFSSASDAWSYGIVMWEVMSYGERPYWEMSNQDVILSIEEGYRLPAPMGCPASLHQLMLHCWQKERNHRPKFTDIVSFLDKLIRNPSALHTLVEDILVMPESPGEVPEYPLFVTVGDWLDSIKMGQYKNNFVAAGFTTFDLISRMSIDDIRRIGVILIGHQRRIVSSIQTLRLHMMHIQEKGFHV
Protocol: as §1, §2, §3, §4

| SMILES | remaining binding at 1 µM [1] | remaining binding at 1 µM [2] | remaining binding at 1 µM [3] | remaining binding at 1 µM [4] | remaining binding at 1 µM [5] |
| --- | --- | --- | --- | --- | --- |
| CNc1nc(Nc2ccc(C(=O)N3CCOCC3)cc2OC)nc2[nH]cc(C#N)c12 [Example 1, 2-((2-methoxy-4-(morpholine-4-carbonyl)phenyl)amino)-4-(methylamino)-7H-pyrrolo[2,3-d]pyrimidine-5-carbonitrile] | 99% | 85% | 96% | 55% | 93% |
| CC1(Nc2nc(Nc3cnn([C@H]4CCN(C5COC5)C[C@@H]4F)c3Cl)nc3[nH]cc(C#N)c23)CC1 [Example 52, 2-((5-chloro-1-((3S,4S)-3-fluoro-1-(oxetane-3-yl)piperidine-4-yl)-1H-pyrazole-4-yl)amino)((1-methylcyclopropyl)amino)-7H-pyrrolo[2,3-d]pyrimidine-5-carbonitrile] | 72% | 9.9% | 63% | 0.3% | 43% |
| CCNc1nc(Nc2ccc(C(=O)N3CCC(N4CCOCC4)CC3)cc2OC)nc2[nH]cc(C(F)(F)F)c12 [Example 104, (4-((4-(ethylamino)-5-(trifluoromethyl)-7H-pyrrolo[2,3-d]pyrimidine-2-yl)amino)-3-methoxyphenyl)(4-morpholinopiperidine-1-yl)methanone] | 86% | 100% | 100% | 3.8% | 100% |
